Source: PubChem BioAssay AID588449 (Broad Institute, 2011)
Activity calls are given as the source filed them.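 The calls were made as follows: active = inhibitors whose fitted AC50 is no more than ten times their highest valid tested dose; inconclusive = flat fit with 30 to 70% inhibition, or poor fit; inactive = the rest.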

Molecular target: Dual specificity tyrosine-phosphorylation-regulated kinase 1A (Rattus norvegicus) (UniProt Q63470)
Test: inhibition of rat Dyrk1A phosphotransfer – biochemical, cherry-pick, plate reader, 2124-03, dose response (AID 588449)
Settings: recombinant Dyrk1A, ADP-Glo luminescence, NFATc1 peptide

AC50 | SMILES
907 nM | Cc1nc(CNc2ncnc3ccc(-c4ccoc4)cc23)cs1
2560 nM | Cc1ccc(CNc2ncnc3ccc(-c4ccoc4C)cc23)o1
84.3 nM | Clc1ccc(CNc2nccc(-c3ccc4c(c3)OCO4)n2)cc1Cl
905 nM | Cc1ccsc1CN(C)c1ncnc2ccc(-c3ccc(CO)o3)cc12
< 5.6 nM | CN(Cc1nccs1)c1ncnc2ccc(-c3ccc4c(c3)OCO4)cc12
3540 nM | c1cncc(CNc2ccnc(-c3ccc4cn[nH]c4c3)n2)c1
< 5.6 nM | COc1ccc(-c2nccc(NCc3ccc(C)cc3)n2)cc1
123 nM | c1cncc(CNc2nccc(-c3ccc4[nH]ncc4c3)n2)c1
62.5 nM | Cc1ccc(CNc2ncnc3ccc(-c4ccc5c(c4)OCO5)cc23)o1
83.2 nM | Fc1c(-c2ccc3ncnc(NCc4cccs4)c3c2)ccc2c1OCO2
< 5.6 nM | c1cc(-c2ccc3c(c2)OCO3)nc(Nc2ccc3c(c2)OCO3)n1
121 nM | Cc1occc1CNc1ncnc2ccc(-c3ccc4c(c3)OCO4)cc12
1970 nM | Cc1csc(CN(C)c2ncnc3ccc(-c4ccc5c(c4)OCO5)cc23)n1
20.8 nM | Cc1nc(CN(C)c2ncnc3ccc(-c4ccc5c(c4)OCO5)cc23)cs1
21.1 nM | Cc1noc(CN(C)c2ncnc3ccc(-c4ccc5c(c4)OCO5)cc23)n1
19.8 nM | Clc1ccc(CNc2nccc(-c3ccc4c(c3)OCCO4)n2)cc1Cl
109 nM | Cc1c(-c2ccnc(NCc3ccc(Cl)cc3)n2)sc(=O)n1C
14.6 nM | c1nc(NCC2CCCC2)c2cc(-c3ccc4c(c3)OCO4)ccc2n1

Continued, compound first:

SMILES | AC50
CN(Cc1cccs1)c1ncnc2ccc(-c3ccc4c(c3)OCO4)cc12 | 49.2 nM
Clc1ccc(CNc2ccnc(-c3ccc4[nH]ncc4c3)n2)cc1Cl | 19.1 nM
Clc1ccccc1-c1ccc2ncnc(NCc3ccc4c(c3)OCO4)c2c1 | 3160 nM
c1coc(CCNc2ncnc3ccc(-c4ccc5c(c4)OCO5)cc23)c1 | 74.8 nM
c1cncc(CNc2nccc(-c3ccc4cn[nH]c4c3)n2)c1 | 217 nM
CN(C)c1ccc(-c2nccc(NCc3cccs3)n2)cc1 | 5460 nM
c1nc(NCC2CCCOC2)c2cc(-c3ccc4c(c3)OCO4)ccc2n1 (stereo not given) | 6.72 nM
Clc1ccc(CNc2cc(-c3ccc4c(c3)OCO4)ncn2)cc1 | 11300 nM
Brc1cc(Br)cc(CNc2nccc(-c3ccc4c(c3)OCO4)n2)c1 | 8.38 nM
Clc1ccc(CNc2ncncc2-c2ccc3c(c2)OCO3)cc1 | 9670 nM
Clc1cc(Cl)cc(CNc2ncncc2-c2ccc3c(c2)OCO3)c1 | 1060 nM
CS(=O)(=O)CCNCc1ccc(-c2ccc3ncnc(Nc4ccc(OCc5cccc(F)c5)c(Cl)c4)c3c2)o1 | > 12000 nM (inactive)
Brc1ccc(CNc2nccc(-c3ccc4c(c3)OCO4)n2)cc1Br | 209 nM
O=[N+]([O-])c1cc(Nc2nccc(-c3ccc4c(c3)OCO4)n2)cc(C(F)(F)F)c1 | 2850 nM
Clc1ccc(Nc2nccc(-c3ccc4c(c3)OCO4)n2)cc1 | 228 nM
Clc1cc(Cl)cc(CNc2cc(-c3ccc4c(c3)OCO4)ncn2)c1 | 340 nM
Cc1nc(CNc2ncnc3ccc(-c4ccc5c(c4)OCO5)cc23)cs1 | 168 nM

SMILES | AC50
Cc1ccsc1CN(C)c1ncnc2ccc(-c3ccoc3)cc12 | 60.9 nM
Clc1ccc(CNc2nccc(-c3ccc4cn[nH]c4c3)n2)cc1Cl | 21.6 nM
CCCNc1ncnc2ccc(-c3ccc4c(c3)OCO4)cc12 | 36.5 nM
Clc1ccc(CNc2nccc(-c3ccc4[nH]ncc4c3)n2)cc1Cl | 114 nM
c1cncc(CNc2nccc(-c3ccc4c(c3)OCO4)n2)c1 | 48 nM
c1csc(CCNc2ncnc3ccc(-c4ccc5c(c4)OCO5)cc23)c1 | < 5.6 nM
Cc1ccc(CN(C)c2ncnc3ccc(-c4ccc5c(c4)OCO5)cc23)o1 | 10.4 nM
Cc1ccsc1CNc1ncnc2ccc(-c3ccc4c(c3)OCO4)cc12 | 7.9 nM
c1cncc(CNc2cc(-c3ccc4c(c3)OCO4)ncn2)c1 | 1970 nM
c1csc(CNc2ncnc3ccc(-c4ccoc4)cc23)c1 | 326 nM
FC(F)(F)c1cccc(Nc2nccc(-c3ccc4c(c3)OCO4)n2)c1 | < 5.6 nM
CCOC(=O)c1ccc(-c2ccc3ncnc(N(C)Cc4sccc4C)c3c2)o1 | 486 nM
Cc1c(-c2ccnc(NCc3cccnc3)n2)sc(=O)n1C | 410 nM
c1cncc(CNc2ccnc(-c3ccc4[nH]ncc4c3)n2)c1 | 711 nM
c1nc(NCC2CCCO2)c2cc(-c3ccc4c(c3)OCO4)ccc2n1 (stereo not given) | < 5.6 nM
CCN(Cc1cccs1)c1ncnc2ccc(-c3ccc4c(c3)OCO4)cc12 | 18 nM

Same assay, conditions: recombinant Dyrk1A, ADP-Glo luminescence, NFATc1 peptide; at 12 µM (top of the series)

activity change, negative = inhibition | SMILES
inactive | Cc1cccc(CNc2ncnc3ccc(-c4cccc(Cl)c4)cc23)c1
inactive | Cn1ccc2cc(-c3ccc4ncnc(NCc5ccc6c(c5)OCO6)c4c3)ccc21

Second part, the compound before the results:

SMILES | activity change, negative = inhibition
c1csc(CNc2ncnc3ccc(-c4ccc5c(c4)OCO5)cc23)n1 | inactive
Cn1ccc2cc(-c3ccc4ncnc(NCc5cccc(F)c5)c4c3)ccc21 | inactive
